Activity calls are given as the source filed them. No rule for the calls is given here.
Tested on: rodent lifetime carcinogenesis bioassay, tumor incidence TD50
Assay: chronic cancer bioassays in animals – CPDB, compiled studies (AID 1745844)

With `S=C(NC1CCCCC1)NC1CCCCC1` as the compound, how does the TD50 (mouse, strain B6C3F1, females, in feed, site: any site (literature study), lesion: several types, types named in the paper, dosed 109 weeks, study length 103 weeks) read?
The TD50 was 122000 mg/kg/day (inactive).

And the TD50 (mouse, strain B6C3F1, females, in feed, site: lung, lesion: alveolar/bronchiolar adenoma + alveolar/bronchiolar carcinoma, dosed 109 weeks, study length 103 weeks)?
The TD50 was 1.11e+08 mg/kg/day.

What about the carcinogen call (mouse, strain B6C3F1, males, in feed, site: any site (literature study), lesion: several types, types named in the paper, dosed 109 weeks, study length 103 weeks) of the same compound?
The carcinogen call was “negative (inactive)”.

And the carcinogen call (rat, strain Fischer 344, females, in feed, site: any site (literature study), lesion: several types, types named in the paper, dosed 109 weeks, study length 109 weeks)?
Its carcinogen call is “negative (inactive)”.

And the TD50 (rat, strain Fischer 344, males, in feed, site: any site (literature study), lesion: several types, types named in the paper, dosed 109 weeks, study length 109 weeks)?
The TD50 was 3910 mg/kg/day.

And the TD50 (rat, strain Fischer 344, males, in feed, site: liver, lesion: hepatocellular adenoma + hepatocellular carcinoma + neoplastic nodule, dosed 109 weeks, study length 109 weeks)?
Its TD50 is 15600 mg/kg/day.

And the TD50 (rat, strain Fischer 344, males, in feed, site: skin, lesion: basal-cell carcinoma, dosed 109 weeks, study length 109 weeks)?
Its TD50 is 26100 mg/kg/day.

What about the TD50 (rat, strain Fischer 344, males, in feed, site: thyroid gland, lesion: c-cell adenoma, dosed 109 weeks, study length 109 weeks) of the same compound?
Its TD50 is 5480 mg/kg/day (inactive).

And the TD50 (rat, strain Fischer 344, males, in feed, site: thyroid gland, lesion: follicular-cell adenoma + follicular-cell carcinoma, dosed 109 weeks, study length 109 weeks)?
Its TD50 is 7410 mg/kg/day.

For `ClCC1CO1` (configuration not stated), which TD50 (mouse, strain Ha/ICR, females, i.p., site: lung, lesion: papillary tumor, dosed 64 weeks, study length 64 weeks) is on record?
Its TD50 is 28.9 mg/kg/day.

What about the TD50 (rat, strain Sprague-Dawley, males, inhaled, site: nasal cavity, lesion: squamous-cell carcinoma, dosed 54 weeks, study length 136 weeks) of the same compound?
Its TD50 is 421 mg/kg/day.

And the TD50 (rat, strain Wistar, females, by gavage, site: forestomach, lesion: squamous-cell carcinoma, dosed 104 weeks, study length 104 weeks)?
Its TD50 is 2.55 mg/kg/day.

What about the carcinogen call (rat, strain Wistar, females, by gavage, site: liver, lesion: neoplastic nodule, dosed 104 weeks, study length 104 weeks) of the same compound?
The carcinogen call was “negative (inactive)”.

What about the TD50 (rat, strain Wistar, males, by gavage, site: any site (literature study), lesion: several types, types named in the paper, dosed 104 weeks, study length 104 weeks) of the same compound?
The TD50 was 4.83 mg/kg/day.

What about the TD50 (rat, strain Wistar, males, by gavage, site: forestomach, lesion: squamous-cell carcinoma, dosed 104 weeks, study length 104 weeks) of the same compound?
The TD50 was 3.53 mg/kg/day.

What about the carcinogen call (rat, strain Wistar, males, by gavage, site: liver, lesion: hepatocellular carcinoma, dosed 104 weeks, study length 104 weeks) of the same compound?
Its carcinogen call is “negative (inactive)”.

What about the carcinogen call (rat, strain Wistar, males, by gavage, site: liver, lesion: neoplastic nodule, dosed 104 weeks, study length 104 weeks) of the same compound?
Its carcinogen call is “negative (inactive)”.

What about the TD50 (rat, strain Wistar, males, by gavage, site: liver, lesion: one or several types, types not named, dosed 104 weeks, study length 104 weeks) of the same compound?
The TD50 was 218 mg/kg/day (inactive).

What does the source list for `O.O=S(=O)(O)O.[Cd]`?
carcinogen call (mouse, strain Swiss, males, by gavage, site: liver, lesion: several types, types named in the paper, dosed 78 weeks, study length 78 weeks): negative (inactive); TD50 (mouse, strain Swiss, males, by gavage, site: lung, lesion: several types, types named in the paper, dosed 78 weeks, study length 78 weeks): 1.78 mg/kg/day (inactive); TD50 (rat, strain C.B. hooded, males, by gavage, site: liver, lesion: liver-cell adenoma, dosed 104 weeks, study length 114 weeks): 1.17 mg/kg/day (inactive)

How did the TD50 (rat, strain Fischer 344, females, in feed, site: liver, lesion: hepatocellular carcinoma, dosed 99 weeks, study length 104 weeks) turn out when `CCCCCN(CCCCC)N=O` was run?
Its TD50 is 7.57 mg/kg/day.

And the TD50 (rat, strain Fischer 344, males, in feed, site: liver, lesion: hepatocellular carcinoma, dosed 89 weeks, study length 104 weeks)?
The TD50 was 2.75 mg/kg/day.

`CN[C@H]1CCc2cc(OC)c(OC)c(OC)c2-c2ccc(OC)c(=O)cc21` was tested. Which TD50 (rat, strain BR 46, males, i.v., site: any site (literature study), lesion: benign tumor, dosed 52 weeks, study length 104 weeks) did it give?
The TD50 was 0.248 mg/kg/day (inactive).

What about the TD50 (rat, strain BR 46, males, i.v., site: any site (literature study), lesion: malignant tumor, dosed 52 weeks, study length 104 weeks) of the same compound?
The TD50 was 0.129 mg/kg/day (inactive).

And the TD50 (rat, strain BR 46, males, i.v., site: any site (literature study), lesion: several types, types named in the paper, dosed 52 weeks, study length 104 weeks)?
Its TD50 is 0.0787 mg/kg/day (inactive).

With `O=C1NC(O)CCN1[C@@H]1O[C@H](CO)[C@@H](O)[C@H]1O` (some centres not stated) as the compound, how does the TD50 (rat, strain Fischer 344, males, i.p., site: any site (literature study), lesion: one or several types, types not named, dosed 52 weeks, study length 52 weeks) read?
The TD50 was 15.7 mg/kg/day.

From PubChem BioAssay AID1745844 (Carcinogenic Potency Database (CPDB), 2022)
